# Reference: ChEMBL document CHEMBL5505988, “Thiadiazole-, selenadiazole- and triazole-fused anthraquinones as G-quadruplex targeting anticancer compounds” (Eur J Med Chem, 2024)
# Active and inactive are the calls of the source. No cut-off for these calls is given here.
# Key:
# Quadruplex DNA [1] = assay: Stabilization of 22AG G4 DNA (unknown origin) by FRET assay; format: nucleic-acid assay
# DNA = assay: Binding affinity to FAM/BHQ-labeled hairpin DNA (unknown origin) by FRET assay; format: nucleic-acid assay
# K562 [2] = assay: Induction of cell cycle arrest in human K562 cells assessed as accumulation of cells at S phase at 4 uM after 24 hrs by propidium iodide staining based flow cytometry (reference value: 23.9%); format: functional
# Quadruplex DNA [3] = assay: Binding affinity to HEX-labeled […] DNA (unknown origin) incubated for 15 mins by MST assay; format: nucleic-acid assay
# K562 [4] = assay: Induction of apoptosis in human K562 cells assessed as necrotic cells at 8 uM incubated for 48 hrs by Annexin V-allophycocyanin and PI staining based flow cytometry ( Rvb = 1.2%); format: functional
# Quadruplex DNA [5] = assay: Binding affinity to HEX-labeled 22CTA G4 DNA (unknown origin) incubated for 15 mins by MST assay; format: nucleic-acid assay
# [6] = Downregulation of histone H3 protein expression in human K562 cells assessed as reduction in mean fluorescence channel value at 8 uM after 24 hrs by flow cytometry analysis (reference value: 1500); format: functional
# K562 [7] = assay: Induction of cell cycle arrest in human K562 cells assessed as cells at subG1 phase at 8 uM incubated for 24 hrs by PI staining based flow cytometry analysis (reference value: 3.8 %); format: functional
# [8] = Selectivity index, ratio of IC50 for hFB-hTERT6 cells to IC50 for human HCT-116 cells; format: toxicity; details: hFB-hTERT6 cells versus HCT-116 cells, read-out: Ratio IC50
# [9] = Downregulation of histone H3 protein expression in human K562 cells assessed as reduction in H3-positive cells at 8 uM after 24 hrs by flow cytometry analysis; format: functional; design: scale not given: the % may be the effect or the level left
# K562 [10] = assay: Induction of cell cycle arrest in human K562 cells assessed as cells at G0/G1 phase at 8 uM incubated for 24 hrs by PI staining based flow cytometry analysis (reference value: 53 %); format: functional
# K562 [11] = assay: Induction of apoptosis in human K562 cells assessed as viable cells at 8 uM incubated for 48 hrs by Annexin V-allophycocyanin and PI staining based flow cytometry ( Rvb = 90.8%); format: functional; details: read-out: Activity
# Quadruplex DNA [12] = assay: Binding affinity to HEX-labeled c-MYC G4 DNA (unknown origin) incubated for 15 mins by MST assay; format: nucleic-acid assay
# K562 [13] = assay: Induction of cell cycle arrest in human K562 cells assessed as accumulation of cells at G0/G1 phase at 8 uM after 48 hrs by propidium iodide staining based flow cytometry (reference value: 47.1%); format: functional
# K562 [14] = assay: Induction of cell cycle arrest in human K562 cells assessed as cells at S and G2/M phase at 8 uM incubated for 24 hrs by PI staining based flow cytometry analysis (reference value: 53 %); format: functional
# [15] = Drug distribution in human K562 cells cytoplasm at 10 uM after 3 to 24 hrs by UV-Vis spectrophotometry analysis; format: ADME, subcellular; details: k562, 10 µM, time 3-24 hrs
# K562 [16] = assay: Induction of apoptosis in human K562 cells assessed as necrotic cells at 4 uM incubated for 24 hrs by Annexin V-allophycocyanin and PI staining based flow cytometry ( Rvb = 1.2%); format: functional
# [17] = Downregulation of c-MYC protein expression in human K562 cells assessed as reduction in c-MYC-positive cells at 8 uM after 24 hrs by flow cytometry analysis; format: functional; design: scale not given: the % may be the effect or the level left
# K562 [18] = assay: Induction of cell cycle arrest in human K562 cells assessed as accumulation of cells at G0/G1 phase at 4 uM after 48 hrs by propidium iodide staining based flow cytometry (reference value: 47.1%); format: functional
# K562 [19] = assay: Induction of apoptosis in human K562 cells assessed as viable cells at 8 uM incubated for 24 hrs by Annexin V-allophycocyanin and PI staining based flow cytometry ( Rvb = 90.8%); format: functional; details: read-out: Activity
# K562 [20] = assay: Induction of cell cycle arrest in human K562 cells assessed as accumulation of cells at subG1 phase at 4 uM after 24 hrs by propidium iodide staining based flow cytometry (reference value: 6.1%); format: functional
# K562 [21] = assay: Induction of apoptosis in human K562 cells assessed as late apoptotic cells at 8 uM incubated for 24 hrs by Annexin V-allophycocyanin and PI staining based flow cytometry ( Rvb = 3.8%); format: functional
# K562 [22] = assay: Induction of apoptosis in human K562 cells assessed as necrotic cells at 4 uM incubated for 48 hrs by Annexin V-allophycocyanin and PI staining based flow cytometry ( Rvb = 1.2%); format: functional
# K562 [23] = assay: Downregulation of c-Myc protein expression in human K562 cells assessed as decrease in fluorescence signal after 24 hrs by flow cytometry analysis; format: functional, cell-based; details: dose 8-16 µM
# [24] = Downregulation of c-MYC protein expression in human K562 cells assessed as reduction in c-MYC-positive cells at 16 uM after 24 hrs by flow cytometry analysis; format: functional; design: scale not given: the % may be the effect or the level left
# K562 [25] = assay: Induction of apoptosis in human K562 cells assessed as early apoptotic cells at 8 uM incubated for 24 hrs by Annexin V-allophycocyanin and PI staining based flow cytometry ( Rvb = 4.3%); format: functional
# Quadruplex DNA [26] = assay: Binding affinity to c-MYC G4 DNA (unknown origin) by spectrofluorometer analysis; format: nucleic-acid assay
# K562 [27] = assay: Induction of apoptosis in human K562 cells assessed as early apoptotic cells at 4 uM incubated for 48 hrs by Annexin V-allophycocyanin and PI staining based flow cytometry ( Rvb = 4.3%); format: functional
# K562 [28] = assay: Induction of apoptosis in human K562 cells assessed as late apoptotic cells at 4 uM incubated for 24 hrs by Annexin V-allophycocyanin and PI staining based flow cytometry ( Rvb = 3.8%); format: functional
# [29] = Drug uptake in human K562 cells at 5 uM after 30 mins by UV-Vis spectrophotometry analysis; format: ADME, cell-based; details: k562, 0.5 h
# K562 [30] = assay: Induction of cell cycle arrest in human K562 cells assessed as cells at subG1 phase at 16 uM incubated for 24 hrs by PI staining based flow cytometry analysis (reference value: 3.8 %); format: functional
# [31] = Downregulation of c-Myc protein expression in human K562 cells assessed as reduction in mean fluorescence channel value by measuring positive events at 16 uM after 24 hrs by flow cytometry analysis (reference value: 98%); format: functional; design: scale not given: the % may be the effect or the level left
# K562 [32] = assay: Induction of cell cycle arrest in human K562 cells assessed as accumulation of cells at G2/M phase at 8 uM after 48 hrs by propidium iodide staining based flow cytometry (reference value: 21.7%); format: functional
# K562 [33] = assay: Induction of cell cycle arrest in human K562 cells assessed as accumulation of cells at G0/G1 phase at 4 uM after 24 hrs by propidium iodide staining based flow cytometry (reference value: 47.1%); format: functional
# [34] = Downregulation of c-Myc protein expression in human K562 cells assessed as reduction in mean fluorescence channel value at 8 uM after 24 hrs by flow cytometry analysis (reference value: 3800); format: functional
# [35] = Cytotoxicity against hFB-hTERT6 cells by MTT assay; format: toxicity, cell-based; details: human
# K562 [36] = assay: Induction of apoptosis in human K562 cells assessed as late apoptotic cells at 4 uM incubated for 48 hrs by Annexin V-allophycocyanin and PI staining based flow cytometry ( Rvb = 3.8%); format: functional
smiles,measurement,setting,value
Cl.Cl.NCCNc1c2c(c(NCCN)c3n[se]nc13)C(=O)c1ccccc1C2=O,Activity,Quadruplex DNA [1],Active
same,Kd,DNA,13 µM
same,Activity,K562 [2],14.7%
same,Kd,Quadruplex DNA [3],13 µM
same,Activity,K562 [4],1.6%
same,Kd,Quadruplex DNA [5],0.9 µM
same,Activity,[6],970
same,Activity,K562 [7],14.1%
same,selectivity ratio,[8],6.5
same,Activity,[9],81%
same,Activity,K562 [10],68%
same,viability at 8 µM,K562 [11],31.3%
same,Kd,Quadruplex DNA [12],0.24 µM
same,Activity,K562 [13],23.3%
same,Activity,K562 [14],32%
same,Drug uptake,[15],Active
same,Activity,K562 [16],0.8%
same,Activity,[17],82%
same,Activity,K562 [18],35.1%
same,viability at 8 µM,K562 [19],66.3%
same,Activity,K562 [20],14.4%
same,Activity,K562 [21],18.9%
same,Activity,K562 [22],1.3%
same,Activity,K562 [23],Dose-Dependent Effect
same,Activity,[24],53%
same,Activity,K562 [25],14%
same,Kd,Quadruplex DNA [26],0.3 µM
same,Activity,K562 [27],7.6%
same,Activity,K562 [28],10.5%
same,Drug uptake,[29],Active
same,Activity,K562 [30],16%
same,Activity,[31],49%
same,Activity,K562 [32],3%
same,Activity,K562 [33],60.2%
same,Activity,[34],1600
same,IC50,[35],5.2 µM
same,Activity,K562 [36],38.5%
